Results from PubChem BioAssay (NCI).
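Cells were grown in 96-well plates and exposed to each compound for 48 hours at five concentrations; endpoints were interpolated linearly between bracketing concentrations, or set to the highest concentration if not reached. At the TGI there is no net growth.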

Assays:
Assay in all cases: NCI anticancer screen, dose series, 48 h
[1] = system: UACC-62 melanoma
[2] = system: MCF7 breast
[3] = system: HL-60(TB) leukemia
[4] = system: OVCAR-8 ovarian
[5] = system: SN12C renal
[6] = system: TK-10 renal
[7] = system: SF-268 CNS
[8] = system: SK-MEL-2 melanoma
[9] = system: NCI-H226 lung
[10] = system: CAKI-1 renal
[11] = system: SF-295 CNS
[12] = system: LOX IMVI melanoma
[13] = system: MALME-3M melanoma

With `COC1/C=C/C(C)C(C(C)C(OC)C(C)CCC(=O)C(C)C(CC(=O)O)OC)OC(=O)/C=C/C=C(\C)CC(OC)CC2=CC(=O)O[C@H](C2)C(C)C(OC)CC(OC)/C=C/C(C)C(OC)C1` (some centres not stated) the TGI [1] was 3.05 µM, the TGI [2] was greater than 4.35 µM and the TGI [3] was 1.73 µM. The TGI [4] was greater than 4.35 µM, the TGI [5] was greater than 4.35 µM and the TGI [6] was 1.66 µM. For the same compound, the TGI [7] was 0.207 µM, the TGI [8] was greater than 4.35 µM and the TGI [9] was 2.26 µM. It also gave a TGI [10] of 0.851 µM and a TGI [11] of 2.19 µM.

Compound `Clc1c2ccccc2nc2c1[nH]c1ccccc12` has a TGI [1] greater than 100 µM, a TGI [2] greater than 100 µM and a TGI [3] of 41.4 µM. The TGI [12] was greater than 100 µM, the TGI [4] was greater than 100 µM and the TGI [5] was greater than 100 µM. The TGI [13] was greater than 100 µM, the TGI [6] was greater than 100 µM and the TGI [7] was greater than 100 µM. The TGI [8] was greater than 100 µM, the TGI [10] was 65.2 µM and the TGI [11] was greater than 100 µM.

`S=C(N1CCN(c2ccccc2)CC1)N1CCN(c2ccccc2)CC1` was tested, and the TGI [1] was greater than 100 µM, the TGI [2] was greater than 100 µM and the TGI [4] was greater than 100 µM. It also gave a TGI [5] greater than 100 µM, a TGI [13] greater than 100 µM and a TGI [6] greater than 100 µM. It also gave a TGI [7] greater than 100 µM, a TGI [8] greater than 100 µM and a TGI [9] greater than 100 µM. It also gave a TGI [10] greater than 100 µM and a TGI [11] greater than 100 µM.

Compound `COc1ccc(C(=O)/C=C/c2ccc(OCC(=N)N)cc2)cc1` has a TGI [1] of 29 µM, a TGI [2] of 26.8 µM and a TGI [4] of 37.3 µM. The TGI [5] was 26.7 µM, the TGI [13] was 32 µM and the TGI [6] was 38.9 µM. For the same compound, the TGI [7] was 35.6 µM, the TGI [9] was 34.1 µM and the TGI [11] was 30 µM.

In the case of `CCOC(=O)C1(Br)S(=O)(=O)OCCOS1(=O)=O`, the TGI [1] is reported as greater than 100 µM, the TGI [3] is reported as greater than 100 µM and the TGI [12] is reported as greater than 100 µM. It also gave a TGI [4] greater than 100 µM, a TGI [5] greater than 100 µM and a TGI [13] greater than 100 µM. For the same compound, the TGI [6] was greater than 100 µM, the TGI [7] was greater than 100 µM and the TGI [8] was greater than 100 µM. For the same compound, the TGI [9] was greater than 100 µM and the TGI [11] was greater than 100 µM.

In the case of `O=c1ccnc2ccc3n[nH][nH]c3c12`, the TGI [1] is reported as greater than 100 µM, the TGI [3] is reported as greater than 100 µM and the TGI [4] is reported as greater than 100 µM. For the same compound, the TGI [5] was greater than 100 µM, the TGI [13] was greater than 100 µM and the TGI [6] was greater than 100 µM. It also gave a TGI [7] greater than 100 µM, a TGI [8] greater than 100 µM and a TGI [10] greater than 100 µM. It also gave a TGI [11] greater than 100 µM.

Compound `COC(=O)C1=C(CCC[C@H](C)O[Si](C)(C)C(C)(C)C)NC(=O)N2[C@@H](CCO)CC[C@H]12` has a TGI [12] of 32.7 µM, a TGI [4] of 29.5 µM and a TGI [5] of 29.2 µM. The TGI [13] was 25.9 µM, the TGI [6] was 35 µM and the TGI [7] was 28.6 µM. The TGI [9] was 32.4 µM, the TGI [10] was 37.9 µM and the TGI [11] was 25.1 µM.

Compound `O=C(NCCCN1CCN(CCCNC(=O)Nc2cccc3ccccc23)CC1)Nc1cccc2ccccc12` has a TGI [1] of 11.9 µM, a TGI [2] of 36.4 µM and a TGI [3] of 67.2 µM. For the same compound, the TGI [12] was 20.7 µM, the TGI [4] was 38.7 µM and the TGI [5] was 30.7 µM. The TGI [13] was 11.8 µM, the TGI [6] was 28.4 µM and the TGI [7] was 38.8 µM. For the same compound, the TGI [8] was 34.2 µM, the TGI [10] was 31.7 µM and the TGI [11] was 27.4 µM.

`COc1cccc(NC(=O)C(=O)C2C=CCS2(=O)=O)c1` (configuration not stated) showed a TGI [1] greater than 100 µM, a TGI [3] greater than 100 µM and a TGI [12] greater than 100 µM. For the same compound, the TGI [4] was greater than 100 µM, the TGI [5] was greater than 100 µM and the TGI [13] was greater than 100 µM. For the same compound, the TGI [6] was greater than 100 µM, the TGI [7] was greater than 100 µM and the TGI [8] was greater than 100 µM. The TGI [9] was greater than 100 µM, the TGI [10] was greater than 100 µM and the TGI [11] was greater than 100 µM.

Compound `CCOC(=O)c1cc(C2CCN(Cc3ccccc3)C2=S)c(C(=O)C=[N+]=[N-])[nH]1` (configuration not stated) has a TGI [1] of 50.7 µM, a TGI [2] of 40.4 µM and a TGI [4] greater than 100 µM. For the same compound, the TGI [13] was 66.3 µM, the TGI [6] was greater than 100 µM and the TGI [7] was 73.9 µM. For the same compound, the TGI [8] was 63 µM, the TGI [10] was greater than 100 µM and the TGI [11] was 66.8 µM.

`COc1c2c(cc3c1C(=O)Cc1ccc4c(c1CN(C)CC3)OCO4)OCO2` gave a TGI [1] greater than 100 µM, a TGI [3] greater than 100 µM and a TGI [12] greater than 100 µM. It also gave a TGI [4] greater than 100 µM, a TGI [5] greater than 100 µM and a TGI [13] greater than 100 µM. The TGI [6] was greater than 100 µM, the TGI [7] was greater than 100 µM and the TGI [8] was greater than 100 µM. For the same compound, the TGI [9] was greater than 100 µM, the TGI [10] was greater than 100 µM and the TGI [11] was greater than 100 µM.

With `N/C(=N\S(=O)(=O)c1cc(Cl)c(Oc2ccc([N+](=O)[O-])cc2Cl)c(Cl)c1)Nc1ccc(Cl)cc1` the TGI [1] was 25.6 µM, the TGI [3] was 39.6 µM and the TGI [12] was 31.6 µM. The TGI [4] was 31.9 µM, the TGI [5] was 33.3 µM and the TGI [13] was greater than 100 µM. For the same compound, the TGI [6] was 35.4 µM, the TGI [7] was greater than 100 µM and the TGI [8] was 36.2 µM. The TGI [9] was 33.2 µM, the TGI [10] was 33.1 µM and the TGI [11] was 39.5 µM.

In the case of `CCOC(=O)C(=O)NC12CC3CC(CC(C3)C1)C2`, the TGI [1] is reported as greater than 100 µM, the TGI [3] is reported as greater than 100 µM and the TGI [12] is reported as greater than 100 µM. It also gave a TGI [4] greater than 100 µM, a TGI [5] greater than 100 µM and a TGI [13] greater than 100 µM. The TGI [6] was greater than 100 µM, the TGI [7] was greater than 100 µM and the TGI [8] was greater than 100 µM. The TGI [9] was greater than 100 µM, the TGI [10] was greater than 100 µM and the TGI [11] was greater than 100 µM.

`COC(=O)C1(C)NCCc2c1[nH]c1ccccc21` (configuration not stated) gave a TGI [1] greater than 100 µM, a TGI [4] greater than 100 µM and a TGI [5] greater than 100 µM. For the same compound, the TGI [13] was greater than 100 µM, the TGI [6] was greater than 100 µM and the TGI [7] was greater than 100 µM. The TGI [8] was greater than 100 µM, the TGI [10] was greater than 100 µM and the TGI [11] was greater than 100 µM.

Compound `CCCN(CCC)C1=Nc2ccccc2-n2cnnc2C1` has a TGI [1] greater than 100 µM, a TGI [3] greater than 100 µM and a TGI [12] greater than 100 µM. It also gave a TGI [4] greater than 100 µM, a TGI [5] greater than 100 µM and a TGI [13] greater than 100 µM. It also gave a TGI [6] greater than 100 µM, a TGI [7] greater than 100 µM and a TGI [8] greater than 100 µM. It also gave a TGI [9] greater than 100 µM and a TGI [11] greater than 100 µM.

`COc1ccc(/C(=N\Nc2ccccn2)c2ccccn2)cc1` was tested, and the TGI [1] was 6.44 µM, the TGI [2] was 49.7 µM and the TGI [3] was 18.4 µM. It also gave a TGI [4] of 11.8 µM, a TGI [5] greater than 100 µM and a TGI [7] of 13.1 µM. It also gave a TGI [8] of 30.2 µM, a TGI [10] of 22.6 µM and a TGI [11] of 3.54 µM.

`CCCCCCCCC/C=C1/CC(CO)(COC(=O)c2ccccc2)OC1=O` (configuration not stated) was tested, and the TGI [1] was 28.1 µM, the TGI [2] was 30.5 µM and the TGI [5] was 26.4 µM. The TGI [13] was 20.8 µM, the TGI [6] was 22.7 µM and the TGI [7] was 29.8 µM. For the same compound, the TGI [8] was 32.4 µM, the TGI [9] was 22.9 µM and the TGI [10] was 24.8 µM. It also gave a TGI [11] of 21.9 µM.

For `CNC(=O)NS(=O)(=O)c1ccc(C)cc1`, the TGI [1] was greater than 100 µM, the TGI [2] was greater than 100 µM and the TGI [3] was greater than 100 µM. For the same compound, the TGI [12] was greater than 100 µM, the TGI [4] was greater than 100 µM and the TGI [5] was greater than 100 µM. The TGI [13] was greater than 100 µM, the TGI [6] was greater than 100 µM and the TGI [7] was greater than 100 µM. It also gave a TGI [8] greater than 100 µM and a TGI [11] greater than 100 µM.

Work on `COc1cc(C=O)cc(O)c1O` yielded a TGI [1] greater than 100 µM, a TGI [3] greater than 100 µM and a TGI [12] greater than 100 µM. For the same compound, the TGI [4] was greater than 100 µM, the TGI [5] was greater than 100 µM and the TGI [13] was greater than 100 µM. For the same compound, the TGI [6] was greater than 100 µM, the TGI [7] was greater than 100 µM and the TGI [9] was greater than 100 µM. For the same compound, the TGI [11] was greater than 100 µM.
